Series [1] concerns pulmonary rat fibroblasts. Briefly: Fibroblast cell cultures: vitamin K or magnesium sulfate on top of copper sulfate (6c). It is filed as cell-based. The settings on record: added to copper sulfate (+8*initial copper concentration in medium); for accumulation of collagen: compared to copper sulfate monotherapy. The source says:
(§1) Cell cultures with pulmonary rat fibroblasts. • 7.
(§2) We first measured copper levels in the fibroblast medium.

Series [2] deals with copper-deficient chicks. The settings on record: copper repletion in copper-deficient chicks, ref. [7]; cited from earlier work.
The subject of series [3] is rats' lungs. The note with it: copper repletion after copper-deficient diet, ref. [15]; cited from earlier work.
Series [4] deals with porcine pancreatic elastase (PPE)-induced emphysema. In words: Porcine pancreatic elastase (PPE)-induced emphysema model in mice. Here is the method:
Methods: In order to assess the effects of copper sulfate plus heparin on both elastin and collagen metabolism in vivo, we used a porcine pancreatic elastase (PPE)-induced emphysema model. Study was conducted in male BALB/c mice aged 7 weeks with a starting body weight of about 25 g. During the study period, all mice were housed in a conventional animal house with a 12/12 h light-dark cycle in filter-top cages and supplied with pelleted food and water ad libitum. 1.5 U porcine pancreatic elastase in 25 μL saline was intratracheally administered on day 1 under light anesthesia. […] On day 35, mice were anesthetized intraperitoneally with a mixture of xylazine (8.5 mg/kg) and ketamine (130 mg/kg), they were tracheotomized and placed in a whole-body plethysmograph to assess lung function. After lung function measurements, mice were euthanized by an intracardiac administration of pentobarbital. The left lung will be snap-frozen in liquid nitrogen and stored at −80° C. for subsequent gene expression studies where ELN, LOX and LOXL1 were measured. The right lung was fixed in 6% paraformaldehyde at a constant hydrostatic pressure of 25 cm fluid column for 24 h. After dehydration and embedding in paraffin, sagittal sections will be stained with various stains and used for histological analyses to measure airspace enlargement (mean linear intercept); and subsequently this lung was used for measuring concentrations of both DES and insoluble collagen. Brains were taken out to measure copper concentrations.

Series [5] concerns pulmonary rat fibroblasts.
Description: as §1, §2

Where [6] appears, read: intratracheal on day 1, 8, 15, 22 and 29, day 35, compared to placebo.
Setting [7] is: fibroblasts grown 21 days, copper sulfate added +0.5 to +32*initial copper concentration in medium.

The values below come from US20210060060A1, “COMPOSITIONS AND METHODS FOR THE TREATMENT OF LUNG EMPHYSEMA AND OTHER FORMS OF COPD” (Emphysema Solutions BV, priority 2018, published 2021).

Read-outs that look alike come from different tables or passages of the source.

As to `CC1=C(C/C=C(\C)CCC[C@H](C)CCC[C@H](C)CCCC(C)C)C(=O)c2ccccc2C1=O` [vitamin K1], in series [1], the DES accumulation result is “additional stimulating effect”, the ELN gene expression result was “no stimulating effect”, the LOX gene expression entry is listed as “no stimulating effect” and the LOXL1 gene expression entry is given as “no stimulating effect”. Moreover, in series [1], the insoluble elastin levels result is “additional stimulating effect”, the tropo-elastin levels entry is given as “no stimulating effect” and the accumulation of collagen result is “no additional stimulating effect”.
Take `[Cu]` [copper]: the “deposition of protease-resistant elastin fibers” value in series [2] is reported as “near normal values”. Further, the “ultrastructure of pulmonary elastin” value in series [3] is given as “restored the ultrastructure of pulmonary elastin to near normal”. For the same compound, the “effect on cerebral copper concentrations” value in series [4] (intratracheally administered, mice) is “no effect”.
Turning to heparin, the “effect on systemic coagulation” value in series [4] (mouse, in vivo) is listed as “did not have any effect”.
As for `O=S(=O)([O-])[O-].[Cu+2]` [copper sulfate], in series [4] (conclusion of the mouse study), the “accumulation of collagen in the lungs” value is “induced accumulation and maturation of collagen fibers”; the “elastin repair process / repair of damaged elastin fibers” value was “very effectively stimulated”. In series [4] (setting [6]), the “DES levels in lung tissue” value was “higher”, the Mean linear intercept entry was “lower” and the “hydroxyproline levels in lung” value is “elevated”. In series [4] (intratracheal on day 1, 8, 15, 22 and 29, measured day 35, compared to placebo), the “hyperinflation in the lung function tests (total lung capacity)” value is reported as “More hyperinflation was present in the lung function tests of mice from the placebo group”. Further, the “copper concentration at which the dose response curve with regard to DES levels topped off” value in series [5] (added on top of the baseline copper (+)) is listed as ~8 *initial copper concentration in the fibroblast medium. Also, in series [5] (setting [7]), the DES levels result is on record as “increased”, the ELN gene expression result is “did not have any effect”, the LOX activity entry is “increased” and the LOX gene expression result is given as “increased”. The LOXL1 gene expression result in series [5] (setting [7]) was “increased”.
As for `O=S(=O)([O-])[O-].[Mg+2]` [magnesium sulfate], in series [1], the DES accumulation result is “additional stimulating effect”, the ELN gene expression result was “no stimulating effect”, the LOX gene expression result is “no stimulating effect” and the LOXL1 gene expression entry was “no stimulating effect”. Besides, in series [1], the tropo-elastin levels entry is given as “no stimulating effect” and the accumulation of collagen entry is given as “no additional stimulating effect”.
In the case of `CC(C)=CCC/C(C)=C/CC/C(C)=C/CC/C(C)=C/CC1=C(C)C(=O)c2ccccc2C1=O` [vitamin K2], in series [1], the DES accumulation entry is recorded as “additional stimulating effect”, the ELN gene expression entry is on record as “no stimulating effect”, the LOX gene expression result is “no stimulating effect” and the LOXL1 gene expression result was “no stimulating effect”. Besides, in series [1], the insoluble elastin levels result was “additional stimulating effect”, the tropo-elastin levels entry is given as “no stimulating effect” and the accumulation of collagen result is listed as “no additional stimulating effect”.
